Results on six molecules are retold here after ChEMBL document CHEMBL1201862, “PubChem BioAssay data set” (2004).

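Five compound concentrations were applied to cells in 96-well plates for 48 hours; endpoints were derived by simple linear interpolation of the resulting dose-response curve. GI50 is the concentration that inhibits growth by half.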 Active and inactive are the calls of the source. No stated cut-off is given here; in the data, active = GI50 up to about 1.1 µM and inactive = higher.

Among the test systems are A498; COLO 205; DLD-1; DMS-114; DMS-273; EKVX; HOP-92; KM-20L2; KM12; LOX IMVI; OVCAR-5; SNB-75; SNB-78; ACHN; M14.
Holding throughout (assay): growth of human tumour cells (NCI), 48 h

As for `CSCSCC(CO)NC(=O)/C=C\c1c(C)[nH]c(=O)[nH]c1=O` (centres undefined), the GI50 with A498 was 23.6 µM (inactive); in the test with COLO 205, 8.79 µM (inactive); with DLD-1 it was 11.6 µM (inactive); in the test on DMS-114 it was 5.56 µM (inactive); in the test on DMS-273, 37.8 µM (inactive); in the test on EKVX it was 16.1 µM (inactive). For the same molecule, the GI50 in the test on HOP-92 is 0.838 µM (active); with KM-20L2, 7.76 µM (inactive); in the test with KM12 it was 12.7 µM (inactive); in the test with LOX IMVI, 14.1 µM (inactive); in the test on OVCAR-5, 57.3 µM (inactive); in the test with SNB-75, 16.3 µM (inactive). Moreover, in the test with SNB-78, the GI50 was 34.4 µM (inactive).
For `COC(=O)[C@@H](O)[C@](O)(CCC(C)C)C(=O)O[C@@H]1C(OC)=C[C@]23CCCN2CCc2cc4c(cc2[C@H]13)OCO4`, the GI50 was 1.48 µM (inactive) in the test with A498; 1.29 µM (inactive) in the test with COLO 205; 1 µM (active) with DLD-1; 0.265 µM (active) in the test on DMS-114; 0.585 µM (active) in the test with DMS-273; 1.71 µM (inactive) in the test on EKVX. Also, the GI50 with HOP-92 was 1.05 µM (active); in the test with KM-20L2, 1.5 µM (inactive); in the test on KM12, 1.26 µM (inactive); with LOX IMVI it was 0.562 µM (active); with OVCAR-5 it was 3.24 µM (inactive); in the test with SNB-75, 1.62 µM (inactive). In the test with SNB-78, the GI50 was 2.59 µM (inactive).
Consider `N/C(=N\O)N/N=C\c1ccccc1O`, for which the GI50 in the test on A498 is 8.95 µM (inactive); with COLO 205, 5.81 µM (inactive); in the test on DLD-1, 5.02 µM (inactive); with DMS-114, 4.73 µM (inactive); with DMS-273 it was 4.38 µM (inactive); in the test with EKVX, 11.2 µM (inactive). The GI50 in the test on HOP-92 was 8.79 µM (inactive); in the test on KM-20L2, 10.2 µM (inactive); in the test on KM12, 5.02 µM (inactive); with LOX IMVI it was 5.48 µM (inactive); in the test on OVCAR-5, 37.5 µM (inactive); in the test on SNB-75 it was 9.48 µM (inactive). In addition, the GI50 in the test with SNB-78 was 21.9 µM (inactive).
For the molecule `CCCCCCCCC1=CCC(CN(C)C)C1=O` (centres undefined), the GI50 in the test with A498 is > 43.9 µM (inactive); in the test with COLO 205 it was 18.8 µM (inactive); with DLD-1, 18.8 µM (inactive); in the test on DMS-114 it was 18.7 µM (inactive); with DMS-273, 18.7 µM (inactive); with EKVX, 23.6 µM (inactive). Besides, the GI50 was 16.9 µM (inactive) in the test with HOP-92; 21.9 µM (inactive) in the test with KM-20L2; 15.1 µM (inactive) in the test on KM12; 16.6 µM (inactive) in the test on LOX IMVI; 33.3 µM (inactive) in the test with OVCAR-5; 17.7 µM (inactive) in the test on SNB-75. Moreover, the GI50 in the test on SNB-78 was 23.8 µM (inactive).
With `CCCOC(=O)CNC(=O)OC(C)(C)C`, the GI50 in the test with ACHN, in the test on COLO 205, in the test on DLD-1, in the test on DMS-114, in the test with DMS-273 and in the test with EKVX was > 100 µM (inactive) in each case. Besides, the GI50 in the test on HOP-92, with KM-20L2, in the test with KM12, in the test on LOX IMVI, in the test with M14 and with OVCAR-5 was > 100 µM (inactive) each time. In addition, the GI50 with SNB-75 and with SNB-78 was > 100 µM (inactive) throughout.
As to `CC(C)=CCc1c(O)ccc2ccc(=O)oc12` [OSTHENOL], the GI50 in the test with A498 was 54.8 µM (inactive); with COLO 205 it was > 100 µM (inactive); in the test on DLD-1, > 100 µM (inactive); in the test with DMS-114, 27.9 µM (inactive); in the test with DMS-273, 63.7 µM (inactive); in the test on EKVX, 51.6 µM (inactive). For the same molecule, the GI50 in the test on HOP-92 was 38.4 µM (inactive); in the test with KM-20L2 it was > 100 µM (inactive); in the test with KM12, > 75.5 µM (inactive); in the test with LOX IMVI, 51.5 µM (inactive); in the test with OVCAR-5 it was > 31.6 µM (inactive); in the test on SNB-75 it was 54.5 µM (inactive). The GI50 in the test with SNB-78 is 32 µM (inactive).
